{"source": "patent US20230382915A1", "about": "“GCN2 AND PERK KINASE INHIBITORS AND METHODS OF USE THEREOF” (Deciphera Pharmaceuticals, LLC, priority 2021, published 2023)", "key": {"[1]": {"system": "GA-10 Burkitt lymphoma cells", "assay": "Cell proliferation, combination with standard of care, GA-10", "format": "cell-based", "conditions": "Homo sapiens, with 50 nM dexamethasone, 96 h, FIG. 6C, read-out: inhibition of cell proliferation IC50, combination treatment", "method": "(§1) H929, RPMI8226, GA-10 and DoHH-2 cells (catalog #CRL-9068) were obtained from the American Type Culture Collection (ATTC, Manassas, VA). H929 Cells were maintained in RPMI-1640 medium supplemented with 20% heat-inactivated fetal bovine serum (catalog #A3840002, ThermoFisher Scientific, Waltham, MA), 1% Penicillin/Streptomycin/L-Glutamine (catalog #10378016, ThermoFisher Scientific, Waltham, MA), and 0.05 mM 2-mercaptoethanol (catalog #21985-023, ThermoFisher Scientific, Waltham, MA). […]\n(§2) For cell proliferation assay appropriate number of cells (Forty thousand cells for H929. Twenty thousand cells for RPMI8226 and GA-10. Eight thousand cells for DoHH-2) were seeded per well in 200 μL in respective medium were dispensed into a 96-well black clear bottom plate. […] Plates were read on a Synergy2 or equivalent reader (Biotek, Winooski VT) using an excitation of 540 nm and an emission of 600 nm. At the end of the incubation of DoHH-2, cell viability was determined using CellTiter-Glo® assay (Promega, Madison, WI). Luminescence was measured using EnVision MultiLabel Reader (PerkinElmer, Waltham, MA). Data was analyzed using GraphPad Prism software (GraphPad, San Diego, CA) to calculate IC50 values."}, "[2]": {"system": "H929 Multiple Myeloma cells", "assay": "Cell proliferation, combination with standard of care, H929", "format": "cell-based", "conditions": "Homo sapiens, NCI-H929; with 3 nM bortezomib, 96 h, FIG. 6B; read-out: inhibition of cell proliferation IC50, combination treatment", "method": "as §1, §2"}, "[3]": {"system": "HT-1080 solid tumor spheroids", "assay": "Spheroid proliferation assay, HT-1080", "format": "cell-based", "conditions": "Homo sapiens, HT-1080, 120 h; 5 days, FIG. 11C; read-out: inhibition of cell proliferation IC50, single agent", "method": "Non Small Cell Lung Cancer (NSCLC) cell lines H358 (catalog #CRL-5807) and H2030 (catalog #CRL-5914), and fibrosarcoma line HT-1080 (catalog […]) were obtained from the American Type Culture Collect (ATTC, Manassas, VA). Cells were grown in RPMI-1640 medium supplemented with 10% heat-inactivated fetal bovine serum and 1% Penicillin/Streptomycin/L-Glutamine (Invitrogen, Carlsbad, CA) at 37° C., 5% CO2, and 95% humidity and maintained at 50-80% confluency until use. 500-1000 cells were plated in 96-well ultra-low attachment plates (Corning, Glendale, AZ) with complete growth media at 80 μL/well and incubated overnight at 37° C., 5% CO2, and 95% humidity to form spheroids. The next day, serial dilutions of test compounds were prepared in complete growth media and 20 μL/well media containing compound titers was added to spheroids in triplicate. Spheroids were then incubated with test compounds for 5 days under the same conditions. At the end of the incubation, spheroids were lysed with 100 μL/well CellTiter-Glo 3D Viability Assay (Promega, Madison, WI) and luminescence was detected using Synergy2 or equivalent reader (Biotek, Winooski, VT). Data was analyzed using GraphPad Prism software (GraphPad, San Diego, CA) to calculate IC50 values."}, "GCN2 kinase": {"target": "GCN2 kinase (Homo sapiens (Human), UniProt Q9P2K8)", "sequence (Q9P2K8 whole entry)": "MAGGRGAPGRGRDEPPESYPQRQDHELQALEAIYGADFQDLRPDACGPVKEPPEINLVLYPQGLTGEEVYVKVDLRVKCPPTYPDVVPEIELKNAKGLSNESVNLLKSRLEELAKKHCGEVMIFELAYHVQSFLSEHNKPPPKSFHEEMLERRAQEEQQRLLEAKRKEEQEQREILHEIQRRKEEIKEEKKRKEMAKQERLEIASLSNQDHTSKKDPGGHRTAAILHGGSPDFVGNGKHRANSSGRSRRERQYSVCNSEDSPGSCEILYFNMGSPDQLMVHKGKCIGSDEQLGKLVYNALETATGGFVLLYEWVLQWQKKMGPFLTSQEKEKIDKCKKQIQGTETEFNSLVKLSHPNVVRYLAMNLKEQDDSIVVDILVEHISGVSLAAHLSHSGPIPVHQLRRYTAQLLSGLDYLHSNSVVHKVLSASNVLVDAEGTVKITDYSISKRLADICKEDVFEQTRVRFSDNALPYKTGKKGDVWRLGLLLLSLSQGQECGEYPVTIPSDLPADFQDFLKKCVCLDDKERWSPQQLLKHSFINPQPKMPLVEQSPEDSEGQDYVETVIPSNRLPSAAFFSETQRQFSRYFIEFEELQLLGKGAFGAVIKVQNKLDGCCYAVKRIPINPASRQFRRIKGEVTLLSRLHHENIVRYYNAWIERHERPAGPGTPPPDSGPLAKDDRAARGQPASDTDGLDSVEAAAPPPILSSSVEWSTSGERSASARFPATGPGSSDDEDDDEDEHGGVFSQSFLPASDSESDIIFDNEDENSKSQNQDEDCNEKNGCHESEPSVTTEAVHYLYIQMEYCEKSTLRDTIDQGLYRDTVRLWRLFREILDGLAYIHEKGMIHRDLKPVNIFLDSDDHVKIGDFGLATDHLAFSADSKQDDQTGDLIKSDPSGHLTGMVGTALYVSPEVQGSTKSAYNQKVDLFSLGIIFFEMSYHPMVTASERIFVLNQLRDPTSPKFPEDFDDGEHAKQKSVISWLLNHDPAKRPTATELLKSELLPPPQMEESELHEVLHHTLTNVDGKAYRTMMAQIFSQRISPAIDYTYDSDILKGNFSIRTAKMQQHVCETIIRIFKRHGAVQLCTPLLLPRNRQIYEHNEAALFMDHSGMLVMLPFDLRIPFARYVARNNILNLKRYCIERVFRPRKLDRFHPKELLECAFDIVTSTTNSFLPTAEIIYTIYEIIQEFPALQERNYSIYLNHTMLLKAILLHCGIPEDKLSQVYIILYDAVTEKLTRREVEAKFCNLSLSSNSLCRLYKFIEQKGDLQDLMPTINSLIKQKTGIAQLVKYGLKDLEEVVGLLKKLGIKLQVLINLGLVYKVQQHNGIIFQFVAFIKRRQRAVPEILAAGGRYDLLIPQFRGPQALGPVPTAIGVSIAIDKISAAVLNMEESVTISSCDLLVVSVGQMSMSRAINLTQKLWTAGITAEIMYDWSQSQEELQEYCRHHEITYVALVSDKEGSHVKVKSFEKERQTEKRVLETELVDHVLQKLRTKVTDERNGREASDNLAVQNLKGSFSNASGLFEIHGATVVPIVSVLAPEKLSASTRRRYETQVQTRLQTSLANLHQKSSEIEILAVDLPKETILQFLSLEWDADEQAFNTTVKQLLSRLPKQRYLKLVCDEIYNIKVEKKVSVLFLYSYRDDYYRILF", "assay": "Biochemical assay for GCN2 (TR-FRET kinase activity)", "conditions": "1 mM ATP", "method": "Activity of GCN2 kinase was determined using a TR-FRET kinase activity assay (e.g. Riddle et al. Analytical Biochemistry (2006) 356(1) 108-116). Assays were conducted in 384-well plates (13 μL assay volume) using 2 nM GCN2 (Carna Biosciences), 130 nM GFP-EIf2α (Invitrogen), 0.2 mg/mL E. coli tRNA (sigma) and 1 mM ATP in kinase buffer (Invitrogen). Inhibition of GCN2 was measured by adding serial diluted test compound (final assay concentration of 0.5% DMSO) followed by a 3-hour incubation. Tb-peIF2α (pSer52) antibody (Invitrogen) (2 nM final assay concentration) in kinase buffer containing EDTA (final assay concentration of 20 mM) was added. After a 60 min incubation at room temperature, TR-FRET was monitored using an excitation wavelength of 340 nm and emission wavelengths of 490 nm and 520 nm. The emission ratio (520/490) at each compound concentration of was converted to percent inhibition using controls (i.e., reaction with no test compound and reaction with a known inhibitor) and IC50 values were calculated by fitting a four-parameter sigmoidal curve to the data using Prism (GraphPad software)."}, "[4]": {"target": "Recombinant GCN2 (EIF2AK4) (Homo sapiens (Human), UniProt Q9P2K8)", "sequence (Q9P2K8 whole entry)": "as above", "assay": "Recombinant GCN2 activation assay", "format": "biochemical", "conditions": "FIG. 9A", "method": "Recombinant GCN2 (EIF2AK4) (Carna Biosciences, Japan) was dephosphorylated by incubating with 16,000 units of lambda phosphatase (New England Biolabs, Ipswich, MA) for 3 h at 30° C. in 1×phosphatase reaction buffer. To measure Compound 2-mediated GCN2 modulation, 12.5 nM dephosphorylated GCN2 diluted in Kinase buffer (Invitrogen, Carlsbad, CA) was incubated with Compound 2 titer for 30 min at RT. Following incubation, 130 nM substrate (GFP-eIF2α) (ThermoFisher Scientific, Waltham, MA) and 0.05 mM ATP was added to the mixture and incubated for 60 min at RT. Reaction was stopped by the addition of 10 mM EDTA and phosphorylated eiF2a substrate was detected using 2 nM LanthaScreen Tb-anti-peIF2α (pSer52) antibody (ThermoFisher Scientific, Waltham, MA) then incubated in the dark. After a 60 min incubation at room temperature, TR-FRET was monitored using an excitation wavelength of 340 nm and emission wavelengths of 490 nm and 520 nm."}}}
{"smiles": "Cn1cc(-c2cccc(NS(=O)(=O)c3cc(Cl)cc(CO)c3Cl)c2F)c2c(N)ncnc21", "note": "[Example 2, N-(3-(4-amino-7-methyl-7H-pyrrolo[2,3-d]pyrimidin-5-yl)-2-fluorophenyl)-2,5-dichloro-3-(hydroxymethyl)benzenesulfonamide]", "values": [{"measurement": "IC50", "setting": "[1]", "result": 4, "unit": "nM"}, {"measurement": "IC50", "setting": "[2]", "result": 6, "unit": "nM"}, {"measurement": "IC50", "setting": "[3]", "result": 12, "unit": "nM"}, {"measurement": "IC50", "setting": "GCN2 kinase", "result": "≤ 100", "unit": "nM"}, {"measurement": "concentrations at which GCN2 enzyme is activated", "setting": "[4]", "result": "0.05 to 3", "unit": "nM"}, {"measurement": "concentrations at which recombinant GCN2 activity is inhibited", "setting": "[4]", "result": "above 10 nM"}, {"measurement": "activation of GCN2 enzyme, % of control", "setting": "[4]; at 0.05-3 nM", "result": "up to 250 % of control"}]}
